According to patent US20200206108A1, “Oral Care Compositions and Methods of Use” (Colgate-Palmolive Company, priority 2018, published 2020):

Assay: Zeta potential of zinc oxide in the presence of amino acids
Assay type: physicochemical
Details: aqueous zinc oxide suspension 12 mM, alone (pH 8) or with the named amino acid (1.7 mmol) added
Procedure: The effect on zinc oxide particle charge upon exposure to amino acids was screened using zeta potential. Specific amino acids were selected based on side chain functionality: L-serine (polar, neutral), L-arginine (polar, cationic), and L-glutamic acid (polar, anionic). For zeta potential measurements, select amino acids (1.7 mmol) were added to aqueous suspensions of zinc oxide (12 mM). This concentration of zinc oxide was studied so as to minimize aggregation during zeta potential measurements. Each amino acid-zinc oxide solution was vortexed, sonicated, and then loaded into a Zetasizer DTS 1061 capillary cuvette. The cuvette was placed in the Zetasizer instrument and 12 zeta runs were performed. An average zeta potential value was calculated from the results.

| Compound | zeta potential (charge of zinc oxide) |
| --- | --- |
| N=C(N)NCCC[C@H](N)C(=O)O [L-arginine] | +36 mV |
| N[C@@H](CCC(=O)O)C(=O)O [L-glutamic acid] | −28 mV |
| N[C@@H](CO)C(=O)O [L-serine] | did not alter the charge |
| [O]=[Zn] [Zinc oxide, zinc oxide] | +16 mV |
